The text below walks through data of ChEMBL document CHEMBL1129112, “Antioxidant and cholesterol lowering properties of 2,6-DI-t-butyl-4-[(dimethylphenylsilyl)methyloxy]phenol and derivatives: A new class of anti-atherogenic compounds” (1996).

Format in all cases: functional
Assay [1] has as its system Oryctolagus cuniculus. The assay can be described thus: Low density lipoprotein (LDL) percent control of cholesterol after administration in rabbits. Also noted: concentration or dose not given beside the values.
Assay [2] is filed under the species Oryctolagus cuniculus. The experiment in a line: The compound was tested for antioxidant activity against serum thiobarbituric acid relative substances (TBARS),.
The test system of assay [3] is Oryctolagus cuniculus. The experiment in a line: High density lipoprotein (HDL) percent control of cholesterol after administration in rabbits. Details: concentration or dose not given beside the values.
Assay [4] concerns Oryctolagus cuniculus. The experiment in a line: Total percent control of cholesterol after administration in rabbits. Details: concentration or dose not given beside the values.
Assay [5] is filed under the species Oryctolagus cuniculus. The experiment in a line: Total cholesterol present in New Zealand white rabbits fed with control diet (100 g/day) for seven days.
The species named for assay [6] is Oryctolagus cuniculus. The assay can be described thus: Tested for antioxidant activity against serum thiobarbituric acid relative substances (TBARS),.

Take `COc1ccccc1[Si](C)(C)COc1cc(C(C)(C)C)c(O)c(C(C)(C)C)c1`: the Control in assay [1] is 61%; in assay [2] it was 75%; in assay [3], 217%; in assay [4], 77%. The Activity in assay [5] was 235 mg/dL.
Turning to `CC(C)(C)c1cc(OC[Si](C)(C)c2ccccc2)cc(C(C)(C)C)c1O`, the Control in assay [1] is 69%; in assay [2], 28%; in assay [3], 81%; in assay [4], 72%. This molecule also gave an Activity in assay [5] of 165 mg/dL.
`CC(C)(C)c1cc(OC[Si](C)(C)c2ccc(Cl)cc2)cc(C(C)(C)C)c1O`: the Control in assay [1] is given as 89%; in assay [2], 57%; in assay [3] it was 109%; in assay [4], 87%. In assay [5], this molecule yielded an Activity of 247 mg/dL.
As for `CC(C)(C)c1cc(SC[Si](C)(C)c2ccccc2)cc(C(C)(C)C)c1O`, the Control in assay [6] came out at 17%; in assay [1], 42%; in assay [3] it was 75%; in assay [4], 52%. For the same molecule, in assay [5], the Activity was 119 mg/dL.
For `COc1ccc([Si](C)(C)COc2cc(C(C)(C)C)c(O)c(C(C)(C)C)c2)cc1`, the Control came to 66% in assay [1], 60% in assay [2], 123% in assay [3] and 54% in assay [4]. In assay [5], this molecule yielded an Activity of 153 mg/dL.
